This experiment deals with T1, human p38 kinase alpha (Homo sapiens, UniProt Q16539).
T1 construct: GST (N, cleaved yes); made in house; host or cells: E. coli DH10B
T1 sequence (Q16539 whole entry): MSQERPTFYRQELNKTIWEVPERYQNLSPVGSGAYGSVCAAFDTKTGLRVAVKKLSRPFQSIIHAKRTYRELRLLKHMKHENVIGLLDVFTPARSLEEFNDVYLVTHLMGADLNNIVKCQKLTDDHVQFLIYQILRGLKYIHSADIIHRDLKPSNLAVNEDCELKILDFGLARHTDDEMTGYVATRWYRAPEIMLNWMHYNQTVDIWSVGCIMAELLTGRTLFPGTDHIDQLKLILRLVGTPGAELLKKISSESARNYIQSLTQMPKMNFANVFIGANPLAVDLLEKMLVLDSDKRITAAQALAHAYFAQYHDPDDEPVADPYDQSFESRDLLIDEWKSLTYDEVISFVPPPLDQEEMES
In words: p38 kinase in vitro assay, phosphorylation of biotinylated PHAS-I with 32P-ATP. Format: biochemical. Particulars: in vitro P38-alpha kinase; read-out: P38 alpha kinase IC50.
What is called IC50 is the concentration at which inhibition is half-maximal. On to `O=C(NCCCc1[nH]nc(-c2ccc(F)cc2)c1-c1ccncc1)c1c(F)ccc(F)c1F` [Example B-1332], for which the IC50 turned out to be 7 nM.
Under `O=C(NCCCc1[nH]nc(-c2ccc(F)cc2)c1-c1ccncc1)c1cccc(Cl)c1Cl` [Example B-1333] stands 450 nM; under `O=C(NCCCc1[nH]nc(-c2ccc(F)cc2)c1-c1ccncc1)c1cc(C(F)(F)F)ccc1F` [Example B-1335], 97 nM; under `O=C(NCCCc1[nH]nc(-c2ccc(F)cc2)c1-c1ccncc1)c1c(F)cc(F)cc1F` [Example B-1336], 72 nM.
On to `O=C(NCCCc1[nH]nc(-c2ccc(F)cc2)c1-c1ccncc1)c1ccc(C(F)(F)F)cc1F` [Example B-1337], for which the half-maximal inhibitory concentration (IC50) amounted to 400 nM.
Regarding `O=C(NCCCc1[nH]nc(-c2ccc(F)cc2)c1-c1ccncc1)c1c(F)cccc1C(F)(F)F` [Example B-1338], the IC50 turned out to be 180 nM.
With `O=C(NCCCc1[nH]nc(-c2ccc(F)cc2)c1-c1ccncc1)c1cccc(C(F)(F)F)c1F` [Example B-1339], the IC50 is 120 nM.
On to `O=C(NCCCc1[nH]nc(-c2ccc(F)cc2)c1-c1ccncc1)c1ccc(F)cc1C(F)(F)F` [Example B-1340], for which the IC50 was 43 nM.
Take `O=C(NCCCc1[nH]nc(-c2ccc(F)cc2)c1-c1ccncc1)c1ccc(F)c(C(F)(F)F)c1` [Example B-1341]: the IC50 came out at 420 nM.
As to `O=C(NCCCc1[nH]nc(-c2ccc(F)cc2)c1-c1ccncc1)c1cc(F)cc(C(F)(F)F)c1` [Example B-1342], the IC50 turned out to be 250 nM.
Consider `O=C(NCCCc1[nH]nc(-c2ccc(F)cc2)c1-c1ccncc1)c1ccccc1Cl` [Example B-1343], for which the IC50 was determined as 65 nM.
For the molecule `Cc1cccc(C(=O)NCCCc2[nH]nc(-c3ccc(F)cc3)c2-c2ccncc2)c1` [Example B-1344], the IC50 was found to be 14 nM.
With `O=C(NCCCc1[nH]nc(-c2ccc(F)cc2)c1-c1ccncc1)c1ccc(Cl)cc1Cl` [Example B-1345], the 50% inhibitory concentration (IC50) came to 270 nM.
As to `O=C(NCCCc1[nH]nc(-c2ccc(F)cc2)c1-c1ccncc1)c1cccc(F)c1` [Example B-1346], the IC50 came to 43 nM.
Turning to `O=C(NCCCc1[nH]nc(-c2ccc(F)cc2)c1-c1ccncc1)c1cccc(F)c1F` [Example B-1347], the 50% inhibitory concentration (IC50) came out at 21 nM.
Regarding `O=C(NCCCc1[nH]nc(-c2ccc(F)cc2)c1-c1ccncc1)c1c(Cl)cccc1Cl` [Example B-1348], the concentration for half-maximal inhibition (IC50) was found to be 9 nM.
As for `O=C(NCCCc1[nH]nc(-c2ccc(F)cc2)c1-c1ccncc1)c1cc(F)ccc1F` [Example B-1349], the IC50 worked out at 37 nM.
Take `O=C(NCCCc1[nH]nc(-c2ccc(F)cc2)c1-c1ccncc1)c1cc(F)c(F)cc1F` [Example B-1350]: the IC50 was 19 nM.
As for `O=C(NCCCc1[nH]nc(-c2ccc(F)cc2)c1-c1ccncc1)c1ccccc1F` [Example B-1351], the half-inhibitory concentration (IC50) amounted to 68 nM.
For the molecule `O=C(NCCCc1[nH]nc(-c2ccc(F)cc2)c1-c1ccncc1)c1c(F)cccc1F` [Example B-1352], the IC50 came out at 13 nM.
Regarding `O=C(NCCCc1[nH]nc(-c2ccc(F)cc2)c1-c1ccncc1)c1ccc(F)cc1F` [Example B-1353], the IC50 was 62 nM.
Under `O=C(NCCCc1[nH]nc(-c2ccc(F)cc2)c1-c1ccncc1)c1cccc(Cl)c1` [Example B-1354] stands 13 nM; under `O=C(NCCCc1[nH]nc(-c2ccc(F)cc2)c1-c1ccncc1)c1ccccc1Br` [Example B-1355], 70 nM; under `O=C(NCCCc1[nH]nc(-c2ccc(F)cc2)c1-c1ccncc1)c1ccc(C(F)(F)F)cc1` [Example B-1356], 59 nM.
In the case of `O=C(NCCCc1[nH]nc(-c2ccc(F)cc2)c1-c1ccncc1)c1cccs1` [Example B-1357], the IC50 came to 180 nM.
`Cc1noc(C)c1C(=O)NCCCc1[nH]nc(-c2ccc(F)cc2)c1-c1ccncc1` [Example B-1358]: the concentration for half-maximal inhibition (IC50) came to 160 nM.
Take `O=C(c1ccccc1I)N1CCC(c2[nH]nc(-c3ccc(F)cc3)c2-c2ccncc2)CC1` [Example B-1359]: the IC50 came out at 5 nM.
As to `CC(C)C(=O)N1CCC(c2[nH]nc(-c3ccc(F)cc3)c2-c2ccncc2)CC1` [Example B-1361], the IC50 was found to be 30 nM.
As to `C=CCOC(=O)N1CCC(c2[nH]nc(-c3ccc(F)cc3)c2-c2ccncc2)CC1` [Example B-1362], the IC50 is 3 nM.
Under `O=C(c1cccc(Br)c1)N1CCC(c2[nH]nc(-c3ccc(F)cc3)c2-c2ccncc2)CC1` [Example B-1365] stands 170 nM; under `O=C(c1ccno1)N1CCC(c2[nH]nc(-c3ccc(F)cc3)c2-c2ccncc2)CC1` [Example B-1367], less than 100 nM; under `COc1cccc(C(=O)N2CCC(c3[nH]nc(-c4ccc(F)cc4)c3-c3ccncc3)CC2)c1` [Example B-1369], less than 100 nM.
Take `Cc1ccc(C(=O)N2CCC(c3[nH]nc(-c4ccc(F)cc4)c3-c3ccncc3)CC2)cc1` [Example B-1371]: the half-maximal inhibitory concentration (IC50) came to 60 nM.
On to `O=C(c1ccncc1)N1CCC(c2[nH]nc(-c3ccc(F)cc3)c2-c2ccncc2)CC1` [Example B-1373], for which the IC50 worked out at 16 nM.
On to `O=S(=O)(Cc1ccccc1)N1CCC(c2[nH]nc(-c3ccc(F)cc3)c2-c2ccncc2)CC1` [Example B-1374], for which the concentration for half-maximal inhibition (IC50) was less than 100 nM.
`CNC(=O)N1CCC(c2[nH]nc(-c3ccc(F)cc3)c2-c2ccncc2)CC1` [Example B-1378]: the 50% inhibitory concentration (IC50) was 20 nM.
Next, `Cc1cccc(C)c1NC(=O)N1CCC(c2[nH]nc(-c3ccc(F)cc3)c2-c2ccncc2)CC1` [Example B-1380]: less than 100 nM; `O=C(c1ccco1)N1CCC(c2[nH]nc(-c3ccc(F)cc3)c2-c2ccncc2)CC1` [Example B-1383]: 1.2 nM.
For the molecule `O=C(c1ccccc1)N1CCC(c2[nH]nc(-c3ccc(F)cc3)c2-c2ccncc2)CC1` [Example B-1385], the IC50 is less than 100 nM.
Under `O=C(c1cccnc1)N1CCC(c2[nH]nc(-c3ccc(F)cc3)c2-c2ccncc2)CC1` [Example B-1387] stands less than 100 nM; under `O=C(c1ccc(C(F)(F)F)cc1)N1CCC(c2[nH]nc(-c3ccc(F)cc3)c2-c2ccncc2)CC1` [Example B-1390], less than 100 nM; under `COc1ccc(C(=O)N2CCC(c3[nH]nc(-c4ccc(F)cc4)c3-c3ccncc3)CC2)cc1` [Example B-1391], 16 nM.
For the molecule `N#Cc1ccc(C(=O)N2CCC(c3[nH]nc(-c4ccc(F)cc4)c3-c3ccncc3)CC2)cc1` [Example B-1392], the half-inhibitory concentration (IC50) came to 59 nM.
Turning to `O=C(c1cccc(F)c1)N1CCC(c2[nH]nc(-c3ccc(F)cc3)c2-c2ccncc2)CC1` [Example B-1393], the IC50 was 3170 nM.
Turning to `O=C(c1cccc(Cl)c1)N1CCC(c2[nH]nc(-c3ccc(F)cc3)c2-c2ccncc2)CC1` [Example B-1394], the IC50 was 320 nM.
`Cc1cccc(C(=O)N2CCC(c3[nH]nc(-c4ccc(F)cc4)c3-c3ccncc3)CC2)c1` [Example B-1395]: the IC50 was determined as 1480 nM.
`N#Cc1cccc(C(=O)N2CCC(c3[nH]nc(-c4ccc(F)cc4)c3-c3ccncc3)CC2)c1` [Example B-1396]: the half-maximal inhibitory concentration (IC50) worked out at 1550 nM.
Next, `O=C(c1ccccc1Br)N1CCC(c2[nH]nc(-c3ccc(F)cc3)c2-c2ccncc2)CC1` [Example B-1398]: 670 nM; `O=C(c1ccccc1C(F)(F)F)N1CCC(c2[nH]nc(-c3ccc(F)cc3)c2-c2ccncc2)CC1` [Example B-1399]: 140 nM.
Under `Cc1ccccc1C(=O)N1CCC(c2[nH]nc(-c3ccc(F)cc3)c2-c2ccncc2)CC1` [Example B-1400] stands 24 nM; under `O=C(c1c(F)cccc1F)N1CCC(c2[nH]nc(-c3ccc(F)cc3)c2-c2ccncc2)CC1` [Example B-1401], 33 nM.
With `O=C(c1cc(F)ccc1F)N1CCC(c2[nH]nc(-c3ccc(F)cc3)c2-c2ccncc2)CC1` [Example B-1402], the IC50 is 120 nM.
For the molecule `Cc1noc(C)c1C(=O)N1CCC(c2[nH]nc(-c3ccc(F)cc3)c2-c2ccncc2)CC1` [Example B-1403], the IC50 stood at 4540 nM.
As to `O=C(c1c(F)cccc1C(F)(F)F)N1CCC(c2[nH]nc(-c3ccc(F)cc3)c2-c2ccncc2)CC1` [Example B-1404], the IC50 came to 600 nM.
On to `O=C(c1cc(C(F)(F)F)ccc1F)N1CCC(c2[nH]nc(-c3ccc(F)cc3)c2-c2ccncc2)CC1` [Example B-1405], for which the IC50 amounted to 280 nM.
Regarding `O=C(c1ccc(C(F)(F)F)cc1F)N1CCC(c2[nH]nc(-c3ccc(F)cc3)c2-c2ccncc2)CC1` [Example B-1406], the 50% inhibitory concentration (IC50) amounted to 1390 nM.
As to `O=C(c1cccc(C(F)(F)F)c1F)N1CCC(c2[nH]nc(-c3ccc(F)cc3)c2-c2ccncc2)CC1` [Example B-1407], the 50% inhibitory concentration (IC50) was determined as 400 nM.
Under `O=C(c1ccc(F)c(C(F)(F)F)c1)N1CCC(c2[nH]nc(-c3ccc(F)cc3)c2-c2ccncc2)CC1` [Example B-1408] stands 270 nM.
As to `O=C(c1cc(F)cc(C(F)(F)F)c1)N1CCC(c2[nH]nc(-c3ccc(F)cc3)c2-c2ccncc2)CC1` [Example B-1409], the half-maximal inhibitory concentration (IC50) is less than 100 nM.
With `O=C(c1ccc(F)cc1C(F)(F)F)N1CCC(c2[nH]nc(-c3ccc(F)cc3)c2-c2ccncc2)CC1` [Example B-1410], the 50% inhibitory concentration (IC50) was less than 100 nM.
Under `O=C(c1cccc(F)c1F)N1CCC(c2[nH]nc(-c3ccc(F)cc3)c2-c2ccncc2)CC1` [Example B-1411] stands less than 100 nM.
Next, `O=C(c1ccc(F)cc1F)N1CCC(c2[nH]nc(-c3ccc(F)cc3)c2-c2ccncc2)CC1` [Example B-1412]: 97 nM; `O=C(c1c(Cl)cccc1Cl)N1CCC(c2[nH]nc(-c3ccc(F)cc3)c2-c2ccncc2)CC1` [Example B-1413]: 16 nM.
Turning to `O=C(c1ccc(F)c(F)c1)N1CCC(c2[nH]nc(-c3ccc(F)cc3)c2-c2ccncc2)CC1` [Example B-1414], the IC50 turned out to be 25 nM.
Turning to `O=C(c1cc(F)cc(F)c1)N1CCC(c2[nH]nc(-c3ccc(F)cc3)c2-c2ccncc2)CC1` [Example B-1415], the IC50 stood at 1410 nM.
Next, `O=C(c1cccc(Cl)c1Cl)N1CCC(c2[nH]nc(-c3ccc(F)cc3)c2-c2ccncc2)CC1` [Example B-1416]: 140 nM; `O=C(c1ccc(Cl)cc1Cl)N1CCC(c2[nH]nc(-c3ccc(F)cc3)c2-c2ccncc2)CC1` [Example B-1417]: 69 nM.
